PubChem BioAssay (NCI)
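Tested at 5 concentrations; 48 h exposure; 96-well plates; endpoints linearly interpolated, else capped at highest concentration. GI50 = concentration required for 50% inhibition of growth. TGI: total growth inhibition.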

Test system: MDA-MB-468 breast
Test: growth of human tumour cells (NCI), 48 h

Row | SMILES | GI50 | TGI
1 | CCN(Cc1cccc(OC)c1)c1ccc(CO)c(Cl)c1 | 17.4 nM | 0.0456 µM
2 | C=C1C(=O)O[C@H]2[C@H]1CC/C(COC(=O)NCc1cc3ccccc3[nH]1)=C\CC[C@@]1(C)O[C@@H]21 | 1060 nM | 3.4 µM
3 | C[C@]12CCC3[C@@H](C[C@@H]4SC(Nc5ccccc5)=N[C@@]45CC(=O)CC[C@]35C)[C@@H]1CCC2=O (some centres not stated) | 3590 nM | 14.6 µM
4 | COc1ccc(-n2c(SCc3cc(OC)c(OC)c(OC)c3)nc3ccc(C)cc3c2=O)c(OC)c1 | 3160 nM | 9.38 µM
5 | Oc1ccc(Cc2ccc(O)c3ncccc23)c2cccnc12 | 278 nM | 0.902 µM
6 | C1CC[N-]CC1.C1CC[N-]CC1.C1CC[N-]CC1.C1CC[N-]CC1.[Cl][Rh][Cl] | 2170 nM | 15.3 µM
7 | CC(=O)OC[C@H]1O[C@@H](n2ccc(=O)[nH]c2=O)[C@H](OC(C)=O)[C@@H]1OC(C)=O | > 100000 nM | > 100 µM
8 | O=C(/C=C/c1cccnc1)NCCCCC1CCN(C(=O)c2ccccc2)CC1 | 27500 nM | > 100 µM
9 | COc1ccccc1-[n+]1cc(-c2ccc(-c3ccccc3)cc2)n2c1CCCCC2 | – | 0.838 µM
